Test results from article PMC6352954, “Benzylamides and piperazinoarylamides of ibuprofen as fatty acid amide hydrolase inhibitors” (Journal of Enzyme Inhibition and Medicinal Chemistry, 2019).
Values belong to the compound of their own block, whether it stands above or below them.

Columns and labels:
FAAH [1] = target: T1, FAAH (Rattus norvegicus, UniProt P97612); assay: FAAH assay: inhibition of rat brain [3H]AEA hydrolysis; conditions: for FAAH inhibitory activity (in words): 0.5 μM [3H]AEA, rat brain homogenates
T1 sequence (P97612 1-579): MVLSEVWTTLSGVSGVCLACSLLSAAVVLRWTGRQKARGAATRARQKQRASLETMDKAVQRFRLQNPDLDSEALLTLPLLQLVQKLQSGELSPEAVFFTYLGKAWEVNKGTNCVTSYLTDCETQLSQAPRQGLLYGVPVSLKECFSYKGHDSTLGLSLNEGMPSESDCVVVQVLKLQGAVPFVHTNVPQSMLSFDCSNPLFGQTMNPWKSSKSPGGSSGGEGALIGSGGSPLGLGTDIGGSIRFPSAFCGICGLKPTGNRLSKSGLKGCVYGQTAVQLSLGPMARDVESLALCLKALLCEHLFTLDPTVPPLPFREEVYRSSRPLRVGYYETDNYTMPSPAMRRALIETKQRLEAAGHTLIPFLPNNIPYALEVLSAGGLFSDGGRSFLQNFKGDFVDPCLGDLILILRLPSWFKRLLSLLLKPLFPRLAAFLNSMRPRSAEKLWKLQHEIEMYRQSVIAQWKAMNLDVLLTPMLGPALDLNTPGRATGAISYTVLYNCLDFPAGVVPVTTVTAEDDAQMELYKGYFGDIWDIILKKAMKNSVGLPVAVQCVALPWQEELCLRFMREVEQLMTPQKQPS

FAAH [2] = target: T1, FAAH; conditions: cited from earlier work
[3] = set-up: method as in PMID 12767601; conditions: cited from earlier work

SMILES: CC(C)Cc1ccc(C(C)C(=O)N2CCN(c3ccc(F)cc3)CC2)cc1 (centres unmarked) [Compound 22, 1–(4-(4-Fluorophenyl)piperazin-1-yl)-2–(4-isobutylphenyl)propan-1-one]
IC50 (FAAH [1]): 17 µM

SMILES: Cc1cccnc1NC(=O)C(C)c1ccc(CC(C)C)cc1 (centres unmarked) [Ibu-AM5]
potency as reversible FAAH inhibitor relative to ibuprofen (FAAH [2]): two to three orders of magnitude more potent than ibuprofen
ulcerogenic potency relative to ibuprofen [3]: much lower ulcerogenic potency than ibuprofen

SMILES: CC(C)Cc1ccc(C(C)C(=O)NCc2c(Cl)cccc2Cl)cc1 (centres unmarked) [Compound 16, N-(2,6-Dichlorobenzyl)-2–(4-isobutylphenyl)propanamide]
melting point: 130 to 135 °C
FAAH inhibitory activity (in words) (FAAH [1]): complete loss of activity

SMILES: CC(C)Cc1ccc(C(C)C(=O)NCc2cc(Cl)ccc2Cl)cc1 (centres unmarked) [Compound 15, N-(2,5-Dichlorobenzyl)-2–(4-isobutylphenyl)propanamide]
IC50 (FAAH [1]): 4.4 µM

SMILES: CC(C)Cc1ccc(C(C)C(=O)N2CCN(c3ccc(Cl)c(Cl)c3)CC2)cc1 (centres unmarked) [Compound 21, 1–(4-(3,4-Dichlorophenyl)piperazin-1-yl)-2–(4-isobutylphenyl)propan-1-one]
loss of FAAH inhibitory activity relative to amide 19 (FAAH [1]; 3,4-dichlorophenyl versus 3-chlorophenyl analogue): 10 fold

SMILES: Cc1cccnc1NC(=O)[C@@H](C)c1ccc(CC(C)C)cc1 [(S)-IbuAM5]
FAAH inhibitory activity of (S)-enantiomer relative to (R)-enantiomer (FAAH [2]): 10 fold

Results, then the compound that gave them:

IC50 (FAAH [1]): 21 µM
SMILES: CC(C)Cc1ccc(C(C)C(=O)NCc2ccc(Cl)cc2Cl)cc1 (centres unmarked) [Compound 14, N-(2,4-Dichlorobenzyl)-2–(4-isobutylphenyl)propanamide]

IC50 (FAAH [1]): 4.1 µM
SMILES: CC(C)Cc1ccc(C(C)C(=O)NCc2ccccc2Cl)cc1 (centres unmarked) [Compound 11, N-(2-Chlorobenzyl)-2–(4-isobutylphenyl)propanamide]

FAAH inhibitory activity (in words) (FAAH [1]): loss of activity
SMILES: Cc1ccccc1N1CCN(C(=O)C(C)c2ccc(CC(C)C)cc2)CC1 (centres unmarked) [Compound 27, 2–(4-Isobutylphenyl)-1–(4-(o-tolyl)piperazin-1-yl)propan-1-one]
